Source: patent US12685777B2, “Compositions, systems, and methods for modulating a target gene” (The Board of Trustees of the Leland Stanford Junior …, priority 2022, dated 2026)
Like-named read-outs stand apart in the source and are kept apart here.

What was measured:
[1] = biological target: T1, bromodomain 1 of BRD4 and BTB domain of BCL6 (Homo sapiens, UniProt O60885+P41182, C67R/C84N/C8Q); assay: TR-FRET assay of ternary complex formation; assay type: binding; conditions: 1 hr at room temperature, 520 nm/490 nm ratio
T1 construct: contains amino acids 5-129 with three mutations, C8Q, C67R, C84N
Description: Reaction was incubated for 1 hr at room temperature, and subsequently the fluorescence at 520 nm and 490 nm was measured. The 520 nm/490 nm ratio is plotted respective to DMSO control. The two lower curves are performed by addition of Neg1 and Neg2 instead of JWZ-7-7. […] The structure of JWZ-7-7 is provided in FIG. 2 and the structures of Neg1 and Neg2 are provided below:
Each reaction contained 100 nM BRD4^BD1, 100 nM BCL6BTB-Avi-Biot, 20 nM Streptavidin-FITC (Thermo #SA1001), and 1:400 anti-6×His terbium antibody (PerkinElmer #61H12TLF) in 10 μL of buffer containing 20 mM HEPES, 150 mM NaCl, 0.1% BSA, 0.1% NP-40, and 1 mM TCEP in a 384-well plate. Protein was incubated with drug digitally dispensed (Tecan D300e) for 1 hour in the dark at room temperature before excitation at 337 nm and measurement of emission at 520 nm (FITC) and 490 nm (terbium) with a PHERAstar FS plate reader (BMG Labtech). The ratio of signal at 520 nm to 490 nm was calculated and normalized to DMSO-treated conditions, and plotted.

KARPAS422 = assay: Cell viability (resazurin/PrestoBlue) of KARPAS422 DLBCL cells; assay type: cell-based, human
Description: (§1) 30,000 cells were plated in 100 μL media per well of a 96 well plate and treated with drug for indicated times and doses. A resazurin-based indicator of cell health (PrestoBlue, ThermoFisher #P50200) was added for 1.5 hours after which the fluorescence ratio at 560/590 nm was recorded. The background fluorescence was subtracted and the signal was normalized to DMSO-treated cells. EC50 measurements on cell lines were done with 4 biological repeats by separate cell passages maintained by 3 independent investigators. Fit of dose-response curves to data and statistical analysis was performed using drc package in R using the four-parameter log-logistic function.
These molecules were tested for their effect on viability of the chemotherapy (CHOP, or cyclophosphamide, hydroxydaunorubicin, Oncovin, and prednisone)-resistant DLBCL cell line, KARPAS422. […] Cell killing was essentially complete at 72 hours (FIG. 27, Panel D).

DLBCL cells = assay: Killing of DLBCL cell lines (cell viability); assay type: cell-based
Description: as §1
It was noted that neither Bl3812 nor JQ1 produced complete loss of cell viability (FIG. 28, Panel A) leaving a resistant population of cells as has been previously reported.

[2] = system: MYC, FOXO3, p21, BCL6, BRD4 protein levels in KARPAS422 and SUDHL5; assay: Western blots of target proteins in DLBCL cells; assay type: cell-based, human
Description: Cells were plated at 1 M/mL and treated with drug at indicated timepoints and doses. 2 M Cells were harvested on ice in RIPA buffer (50 mM Tris-HCl pH 8, 150 mM NaCl, 1% NP-40, 0.1% DOC, 1% SDS, protease inhibitor cocktail (homemade), 1 mM DTT) and 1:200 benzonase (Sigma #E1014) was added and incubated for 20 minutes. After 10 minute centrifugation at 14,000 g and 4° C., the supernatant was collected and protein concentration was measured by Bradford.
Because a high percentage of the TCIP1-treated cells contain fragmented DNA by TUNEL assay at 24 hours (FIG. 31, Panel E), many of the “reduced genes” could reflect DNA fragmentation as part of the apoptotic process and digestion to mononucleosomes. Among the group of genes whose expression was most reduced were MYC and its targets (FIGS. 33B, 36C). The top 100 most TCIP1-reduced genes were examined using ChIP-seq data of human transcription factors in blood cancer cell lines, and found the promoters of TCIP1-inhibited genes highly enriched for MYC binding in multiple datasets (FIG. 33, Panel C). This is significant since many DLBCLs are considered to be MYC-dependent.
Signaling via NF-kB is known to be repressed by BCL6.

| SMILES | Ternary complex formation (TR-FRET) [1] | EC50 (KARPAS422; Homo sapiens, KARPAS-422, KARPAS422 (CHOP-resistant, TP53-mutant DLBCL), 72 hours after addition of drug, read-out: EC50 of cell killing / cell viability) | Cell killing after short exposure and washout (DLBCL cells; 10 nM, 4 hours exposure followed by washout) | Concentration that regulates genes critical for DLBCL ([2]; Karpas 422, 24 hours, Western blot) | EC50 (KARPAS422; KARPAS422 (CHOP-resistant, TP53-mutant DLBCL), 72 hours after addition of drug, read-out: EC50 of cell killing / cell viability) | EC50 (KARPAS422; KARPAS422, without cell cycle arrest, read-out: EC50 of cell viability without arrest) | EC50 (DLBCL cells; DLBCL lines including chemotherapy-resistant, TP53-mutant lines, 72 hrs) | Time to FOXO3 activation ([2]; 10 nM) | Effect on BRD4 protein levels ([2]; 20 hours, KARPAS422) | Concentration from which the long isoform of BCL6 protein is induced ([2]; DLBCL cell lines) | Concentration that activates FOXO3 ([2]; Western blot) | Concentration from which MYC protein levels are reduced ([2]; Western blot, DLBCL cells) | Time to reduction of MYC protein levels ([2]; after drug addition) |
| --- | --- | --- | --- | --- | --- | --- | --- | --- | --- | --- | --- | --- | --- |
| CNC(=O)COc1cc2cc(Nc3nc(N4CCC(C(=O)NCCCCCCCNC(=O)C[C@@H]5N=C(c6ccc(Cl)cc6)c6c(sc(C)c6C)-n6c(C)nnc65)CC4)ncc3Cl)cc(OC)c2n(C)c1=O [JWZ-7-7, (S)-1-(5-chloro-4-((8-methoxy-1-methyl-3-(2-(methylamino)-2-oxoethoxy)-2-oxo-1,2-dihydroquinolin-6-yl)amino)pyrimidin-2-yl)-N-(7-(2-(4-(4-chlorophenyl)-2,3,9-trimethyl-6H-thieno[3,2-f][1,2,4]triazolo[4,3-a][1,4]diazepin-6-yl)acetamido)heptyl)piperidine-4-carboxamide] | showed ternary complex formation | 1.3 nM | robust killing | < 1 NM |  |  |  |  |  |  |  |  |  |
| CNC(=O)COc1cc2cc(Nc3nc(N4CCC(C(=O)NCCCCCCCNC(=O)C[C@@H]5N=C(c6ccc(Cl)cc6)c6c(sc(C)c6C)-n6c(C)nnc65)CC4)ncc3Cl)cc(OC)c2n(C)c1=O [TCIP1] | detected |  |  |  | 1.3 nM | 1.1 nM | 1.3 nM | within two hours | did not change substantially | 0.5 to 1 nM | 0.5 nM | less than 1 nM | ≤ 2 h |
